Assay results as given in patent US20050148523A1, “Method of treating HIV infection in atazanavir-resistant patients using a combination of atazanavir and another protease inhibitor” (priority 2003, published 2005).

What was measured:
[1] = test system: clinical isolates containing an I50V; test: PhenoSense phenotypic susceptibility of clinical isolates containing I50V; type: cell-based, HIV-1
Excerpt: (§1) Drug Susceptibility Assays. Clinical isolates were subjected to phenotypic (PhenoSense™) and genotypic (GeneSeq™) analysis by Virologic, Inc. as described elsewhere.
Because an I50V substitution is a signature mutation sometimes associated with APV resistance, the cross-resistance relationship between ATV and APV was further examined.

[2] = test system: recombinant HIV-1 viruses (NL4-3, RF, LAI) in MT-2 cells; test: MT-2 cell susceptibility assay of recombinant viruses; type: cell-based; conditions: all three viral strains, I50L or I50L/A71V introduced by site-directed mutagenesis
Method: Cells and Viruses. MT-2 cells, HIV-1 RF, HIV1-LAI, and the HIV-1 NL4-3 proviral clones were obtained through the AIDS Research and Reference Reagent Program, National Institutes of Health. MT-2 cells were cultured in RPMI 1640 medium supplemented with 10% fetal bovine serum, 2 mM L-glutamine, and 10 mM Hepes buffer. HIV-1 viruses were generated by transient transfection of the proviral DNA into Human Embryonic Kidney 293 cells using Lipofectamine reagents (Gibco BRL). The viruses were harvested 72 hr post-transfection, amplified in MT-2 cells, and titered in the same cells using a virus yield assay.
Recombinant HIV-1 Variants and Chimeric NL4-3 Proviral Clones. HIV-1 strains with defined substitutions in the protease gene were generated by QuikChange® site-directed mutagenesis as recommended by the manufacturer (Stratagene). Recombinant NL4-3 and LAI proviral clones containing the wild-type and mutant protease genes from RF and clinical isolates were constructed by replacing the SseI/ApaI fragment of pNL4-3 with the appropriate SseI/ApaI protease fragments.
Recombinant viruses (generated separately from those made for PhenoSense assays) were tested in an MT-2 cell susceptibility assay at Bristol Myers Squibb. MT-2 cells were infected with recombinant viruses at a multiplicity of infection (MOI) of 0.005 50% tissue culture infective doses (TCID50)/cell followed by incubation in the presence or absence of serially diluted protease inhibitors for 4 to 7 days. Virus yields were quantified using a RT assay as previously described. The results from at least four independent experiments were used to calculate the EC50.

[3] = test system: clinical isolates containing a D30N substitution; test: PhenoSense phenotypic susceptibility of clinical isolates containing D30N; type: cell-based, HIV-1; conditions: 75 D30N containing isolates, FIG. 3
Method: as §1
Comparative Studies of I50L and D30N Containing Viruses. […] Comparative studies were performed on the 18 phenotyped viruses containing an I50L and 75 clinical isolates containing a D30N substitution without evidence of cross-resistance (FC≧2.5) to other PIs.

[4] = test system: clinical isolates containing an I50L substitution (and their baseline isolates); test: PhenoSense phenotypic susceptibility of clinical isolates from ATV-treated patients who developed I50L; type: cell-based, HIV-1; conditions: for Subceptibility, Fold Change in EC50 relative to reference strain: Subject 169, Week 114; for median increase in susceptibility from baseline: on emergence of I50L, n=4 to 15; for percentage of I50L isolates with susceptibility (FC) 0.4-fold or lower: relative to the reference strain
Excerpt: Study Population. Viral samples (baseline and on-treatment, where available) were obtained from patients who experienced virologic failure while enrolled in studies AI424-007/041 [12] (ATV+d4T and ddI), AI424-008/044 [13, 14] (ATV+d4T and 3TC) and AI424-034 [9] (ATV or EFV in combination with ZDV and 3TC). […] In general, virologic failure specimens were selected for further resistance evaluation only if they contained >1,000 copies/mL HIV-1 RNA and there was no indication that the specimen came from a patient at a time of transient non-adherence to study drug(s). […] For non-responders, samples from week 16 (or 24) were tested. Drug adherence was determined from pill counts of returned study medications at each scheduled visit.
as §1

[5] = test system: clinical isolates from patients on NFV regimens; conditions: isolates containing D30N as the only primary PI mutation; cited from earlier work
[6] = test system: HIV-1 variants containing I50V; conditions: in vitro; cited from earlier work

Structure (SMILES): CC(C)CN(C[C@@H](O)[C@H](Cc1ccccc1)NC(=O)O[C@H]1CCOC1)S(=O)(=O)c1ccc(N)cc1 [APV, amprenavir]
- Susceptibility, Fold Change in EC50 relative to reference strain ([1]; Isolate with I50V 1): 3.5 Fold Change
- Susceptibility, Fold Change in EC50 relative to reference strain ([1]; Isolate with I50V 2): 4.2 Fold Change
- Susceptibility, Fold Change in EC50 relative to reference strain ([1]; Isolate with I50V 3): 8.0 Fold Change
- Susceptibility, Fold Change in EC50 relative to reference strain ([1]; Isolate with I50V 4): 9.4 Fold Change
- Susceptibility, Fold Change in EC50 relative to reference strain ([1]; Isolate with I50V 5): 11 Fold Change
- Susceptibility, Fold Change in EC50 relative to reference strain ([1]; Isolate with I50V 6): 11 Fold Change
- Susceptibility, Fold Change in EC50 relative to reference strain ([1]; Isolate with I50V 7): 12 Fold Change
- Susceptibility, Fold Change in EC50 relative to reference strain ([1]; Isolate with I50V 8): 14 Fold Change
- change in susceptibility [2]: enhanced susceptibility
- median FC [3]: 0.6
- cross-resistance ([4]; I50L containing clinical isolates): none of the I50L containing clinical isolates showed evidence of APV resistance
- Susceptibility, Fold Change in EC50 relative to reference strain ([4]; Isolate with I50L 1): 0.3 Fold Change
- Susceptibility, Fold Change in EC50 relative to reference strain ([4]; Isolate with I50L 2): 0.6 Fold Change
- Susceptibility, Fold Change in EC50 relative to reference strain ([4]; Isolate with I50L 3): 0.5 Fold Change
- Susceptibility, Fold Change in EC50 relative to reference strain ([4]; Isolate with I50L 4): 0.4 Fold Change
- Susceptibility, Fold Change in EC50 relative to reference strain ([4]; Isolate with I50L 5): 0.6 Fold Change
- Susceptibility, Fold Change in EC50 relative to reference strain ([4]; Isolate with I50L 6): 0.4 Fold Change
- Susceptibility, Fold Change in EC50 relative to reference strain ([4]; Isolate with I50L 7): 0.6 Fold Change
- Susceptibility, Fold Change in EC50 relative to reference strain ([4]; Isolate with I50L 8): 0.8 Fold Change
- Susceptibility, Fold Change in EC50 relative to reference strain ([4]; Isolate with I50L 9): 0.6 Fold Change
- Susceptibility, Fold Change in EC50 relative to reference strain ([4]; Isolate with I50L 10): 0.3 Fold Change
- Susceptibility, Fold Change in EC50 relative to reference strain ([4]; Isolate with I50L 11): 0.4 Fold Change
- Susceptibility, Fold Change in EC50 relative to reference strain ([4]; Isolate with I50L 12): 0.7 Fold Change
- Susceptibility, Fold Change in EC50 relative to reference strain ([4]; Isolate with I50L 13): 0.7 Fold Change
- Susceptibility, Fold Change in EC50 relative to reference strain ([4]; Isolate with I50L 14): 0.8 Fold Change
- Susceptibility, Fold Change in EC50 relative to reference strain ([4]; Isolate with I50L 15): 0.9 Fold Change
- Susceptibility, Fold Change in EC50 relative to reference strain ([4]; Isolate with I50L 16): 0.4 Fold Change
- Susceptibility, Fold Change in EC50 relative to reference strain ([4]; Subject 076, Week 80): 0.6 Fold Change
- Susceptibility, Fold Change in EC50 relative to reference strain ([4]; Subject 076, Week 92): 0.9 Fold Change
- Susceptibility, Fold Change in EC50 relative to reference strain ([4]; Subject 100, Week 1.7): 1.5 Fold Change
- Susceptibility, Fold Change in EC50 relative to reference strain ([4]; Subject 169, Week 0.1): 0.6 Fold Change
- Susceptibility, Fold Change in EC50 relative to reference strain ([4]; Subject 169, Week 90): 0.7 Fold Change
- Susceptibility, Fold Change in EC50 relative to reference strain ([4]; Subject 169, Week 102): 0.6 Fold Change
- Subceptibility, Fold Change in EC50 relative to reference strain [4]: 1.2 Fold Change
- Susceptibility, Fold Change in EC50 relative to reference strain ([4]; Subject 362, Week 0.1): 1.0 Fold Change
- Susceptibility, Fold Change in EC50 relative to reference strain ([4]; Subject 362, Week 108): 1.1 Fold Change
- percentage of baseline isolates exhibiting a FC≦0.4 [4]: 21%
- median increase in susceptibility from baseline [4]: 1.5 fold
- percentage of I50L isolates with susceptibility (FC) 0.4-fold or lower [4]: 39%
- susceptibility [5]: remained susceptible

Structure (SMILES): CC(C)(C)NC(=O)[C@@H]1C[C@@H]2CCCC[C@@H]2CN1C[C@@H](O)[C@H](Cc1ccccc1)NC(=O)[C@H](CC(N)=O)NC(=O)c1ccc2ccccc2n1 [SQV, saquinavir]
- effect of I50V on susceptibility [6]: increased susceptibility
- change in susceptibility [2]: enhanced susceptibility
- Susceptibility, Fold Change in EC50 relative to reference strain ([4]; Subject 076, Week 80): 0.3 Fold Change
- Susceptibility, Fold Change in EC50 relative to reference strain ([4]; Subject 076, Week 92): 0.5 Fold Change
- Susceptibility, Fold Change in EC50 relative to reference strain ([4]; Subject 100, Week 1.7): 1.3 Fold Change
- Susceptibility, Fold Change in EC50 relative to reference strain ([4]; Subject 169, Week 0.1): 0.8 Fold Change
- Susceptibility, Fold Change in EC50 relative to reference strain ([4]; Subject 169, Week 90): 0.5 Fold Change
- Susceptibility, Fold Change in EC50 relative to reference strain ([4]; Subject 169, Week 102): 0.4 Fold Change
- Subceptibility, Fold Change in EC50 relative to reference strain [4]: 0.5 Fold Change
- Susceptibility, Fold Change in EC50 relative to reference strain ([4]; Subject 362, Week 0.1): 1.0 Fold Change
- Susceptibility, Fold Change in EC50 relative to reference strain ([4]; Subject 362, Week 108): 0.5 Fold Change
- percentage of baseline isolates exhibiting a FC≦0.4 [4]: 10%
- median increase in susceptibility from baseline [4]: 2.0 fold
- percentage of I50L isolates with susceptibility (FC) 0.4-fold or lower [4]: 72%
- median FC [4]: ≤ 0.4
- susceptibility [5]: remained susceptible

Structure (SMILES): CC(C)(C)NC(=O)[C@@H]1CN(Cc2cccnc2)CCN1C[C@@H](O)C[C@@H](Cc1ccccc1)C(=O)N[C@H]1c2ccccc2C[C@H]1O [IDV, indinavir]
- effect of I50V on susceptibility [6]: increased susceptibility
- change in susceptibility [2]: enhanced susceptibility
- median FC [3]: small median decreases in susceptibility
- Susceptibility, Fold Change in EC50 relative to reference strain ([4]; Subject 076, Week 80): 0.4 Fold Change
- Susceptibility, Fold Change in EC50 relative to reference strain ([4]; Subject 076, Week 92): 0.5 Fold Change
- Susceptibility, Fold Change in EC50 relative to reference strain ([4]; Subject 100, Week 1.7): 1.6 Fold Change
- Susceptibility, Fold Change in EC50 relative to reference strain ([4]; Subject 169, Week 0.1): 0.8 Fold Change
- Susceptibility, Fold Change in EC50 relative to reference strain ([4]; Subject 169, Week 90): 0.5 Fold Change
- Susceptibility, Fold Change in EC50 relative to reference strain ([4]; Subject 169, Week 102): 0.4 Fold Change
- Subceptibility, Fold Change in EC50 relative to reference strain [4]: 0.4 Fold Change
- Susceptibility, Fold Change in EC50 relative to reference strain ([4]; Subject 362, Week 0.1): 1.3 Fold Change
- Susceptibility, Fold Change in EC50 relative to reference strain ([4]; Subject 362, Week 108): 0.7 Fold Change
- percentage of baseline isolates exhibiting a FC≦0.4 [4]: 0%
- median increase in susceptibility from baseline [4]: 2.0 fold
- percentage of I50L isolates with susceptibility (FC) 0.4-fold or lower [4]: 58%
- median FC [4]: ≤ 0.4
- susceptibility [5]: remained susceptible

Structure (SMILES): CC(C)c1nc(CN(C)C(=O)N[C@H](C(=O)N[C@@H](Cc2ccccc2)C[C@H](O)[C@H](Cc2ccccc2)NC(=O)OCc2cncs2)C(C)C)cs1 [RTV, ritonavir]
- effect of I50V on susceptibility [6]: reduced susceptibility
- change in susceptibility [2]: enhanced susceptibility
- Susceptibility, Fold Change in EC50 relative to reference strain ([4]; Subject 076, Week 80): 0.3 Fold Change
- Susceptibility, Fold Change in EC50 relative to reference strain ([4]; Subject 076, Week 92): 0.3 Fold Change
- Susceptibility, Fold Change in EC50 relative to reference strain ([4]; Subject 100, Week 1.7): 2.2 Fold Change
- Susceptibility, Fold Change in EC50 relative to reference strain ([4]; Subject 169, Week 0.1): 1.5 Fold Change
- Susceptibility, Fold Change in EC50 relative to reference strain ([4]; Subject 169, Week 90): 0.3 Fold Change
- Susceptibility, Fold Change in EC50 relative to reference strain ([4]; Subject 169, Week 102): 0.3 Fold Change
- Subceptibility, Fold Change in EC50 relative to reference strain [4]: 0.4 Fold Change
- Susceptibility, Fold Change in EC50 relative to reference strain ([4]; Subject 362, Week 0.1): 1.1 Fold Change
- Susceptibility, Fold Change in EC50 relative to reference strain ([4]; Subject 362, Week 108): 0.4 Fold Change
- percentage of baseline isolates exhibiting a FC≦0.4 [4]: 10%
- median increase in susceptibility from baseline [4]: 4.1 fold
- percentage of I50L isolates with susceptibility (FC) 0.4-fold or lower [4]: 83%
- median FC [4]: ≤ 0.4
- susceptibility [5]: remained susceptible

Structure (SMILES): Cc1cccc(C)c1OCC(=O)N[C@@H](Cc1ccccc1)[C@@H](O)C[C@H](Cc1ccccc1)NC(=O)[C@H](C(C)C)N1CCCNC1=O [LPV, lopinavir]
- effect of I50V on susceptibility [6]: reduced susceptibility
- change in susceptibility [2]: enhanced susceptibility
- Susceptibility, Fold Change in EC50 relative to reference strain ([4]; Subject 076, Week 80): 0.6 Fold Change
- Susceptibility, Fold Change in EC50 relative to reference strain ([4]; Subject 076, Week 92): 0.5 Fold Change
- percentage of baseline isolates exhibiting a FC≦0.4 [4]: 0%
- median increase in susceptibility from baseline [4]: 3.2 fold
- percentage of I50L isolates with susceptibility (FC) 0.4-fold or lower [4]: 100%
- median FC [4]: ≤ 0.4
